Measurements taken from patent EP3095787A1, “[…] ACTIVE COMPOUNDS AS DAG-LIPASE INHIBITORS” (Universiteit Leiden, priority 2015, dated 2016).

Columns and labels:
FAAH = target: T1, FAAH (Mus musculus, UniProt O08914); assay: Gel based competitive ABPP selectivity assay with TAMRA-FP in mouse brain proteome (FAAH band); format: biochemical; details: for FAAH ABPP (10 µm) % Eff.: 10 µM inhibitor, TAMRA-FP 500 nM, mouse brain proteome, vehicle set to 100%
T1 construct: For gel based ABPP experiments mouse brain proteome (2.0 mg/mL, 20 µL) was preincubated; from tissue; host or cells: mouse brain proteome
T1 sequence (O08914 1-579): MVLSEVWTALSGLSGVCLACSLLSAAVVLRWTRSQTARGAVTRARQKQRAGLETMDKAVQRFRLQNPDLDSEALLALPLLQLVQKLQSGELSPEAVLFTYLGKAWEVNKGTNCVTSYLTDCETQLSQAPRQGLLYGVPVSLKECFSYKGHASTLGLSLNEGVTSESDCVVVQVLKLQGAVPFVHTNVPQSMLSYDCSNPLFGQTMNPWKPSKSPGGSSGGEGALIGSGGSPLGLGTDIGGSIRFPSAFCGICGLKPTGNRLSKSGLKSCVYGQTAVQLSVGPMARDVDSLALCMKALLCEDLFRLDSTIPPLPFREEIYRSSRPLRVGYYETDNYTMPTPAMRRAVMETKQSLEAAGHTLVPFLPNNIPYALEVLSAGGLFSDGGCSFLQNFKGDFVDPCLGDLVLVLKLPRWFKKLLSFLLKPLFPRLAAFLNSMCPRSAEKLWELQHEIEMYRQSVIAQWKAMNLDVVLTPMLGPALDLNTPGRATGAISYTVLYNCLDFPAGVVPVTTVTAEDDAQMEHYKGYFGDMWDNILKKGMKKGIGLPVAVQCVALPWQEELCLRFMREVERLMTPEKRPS
Method: For gel based ABPP experiments mouse brain proteome (2.0 mg/mL, 20 µL) was preincubated for 30 min with vehicle (DMSO) or compound to be tested in 0.5 µL DMSO at rt. And subsequently treated with 500 nM (final concentration) TAMRA-FP (TAMRA-FP was bought at Thermo Fischer) for 15 minutes at rt. The reactions were quenched with 10 µL standard 3 x SDS page sample buffer. The samples were directly loaded and resolved on SDS page gel (10 % acrylamide). The gels were scanned with a ChemiDoc MP sytem (Biorad, Cy 3 settings, 605/50 filter) and analyzed using Image Lab 4.1.
The percentage effect on FAAH was determined by measuring the integrated optical intensity of the band corresponding to FAAH (∼ 63 kD for mouse) using Image lab software. This activity was corrected for the total protein loading per lane as determined by coomassie staining and imaging with a ChemiDoc™ MP sytem (Biorad) followed by determination of the integrated optical intensity per lane by using Image Lab 4.1 software. The intensity of the protein bands from the samples treated with vehicle was set to 100%. […] N/A means less than 50% probe displacement at 10 µM inhibitor concentration.

hDAGL-α = target: T2, hDAGL-α (Homo sapiens, UniProt Q9Y4D2); assay: Biochemical hDAGL-α activity assay (PNP-butyrate hydrolysis, 96 well plate); set-up: expressed in transfected cells; host or cells: HEK293T (transient), membrane fraction; details: PNP-butyrate 0.3 mM, membranes of HEK293T cells transfected with hDAGL-α
T2 sequence (Q9Y4D2 1-1042): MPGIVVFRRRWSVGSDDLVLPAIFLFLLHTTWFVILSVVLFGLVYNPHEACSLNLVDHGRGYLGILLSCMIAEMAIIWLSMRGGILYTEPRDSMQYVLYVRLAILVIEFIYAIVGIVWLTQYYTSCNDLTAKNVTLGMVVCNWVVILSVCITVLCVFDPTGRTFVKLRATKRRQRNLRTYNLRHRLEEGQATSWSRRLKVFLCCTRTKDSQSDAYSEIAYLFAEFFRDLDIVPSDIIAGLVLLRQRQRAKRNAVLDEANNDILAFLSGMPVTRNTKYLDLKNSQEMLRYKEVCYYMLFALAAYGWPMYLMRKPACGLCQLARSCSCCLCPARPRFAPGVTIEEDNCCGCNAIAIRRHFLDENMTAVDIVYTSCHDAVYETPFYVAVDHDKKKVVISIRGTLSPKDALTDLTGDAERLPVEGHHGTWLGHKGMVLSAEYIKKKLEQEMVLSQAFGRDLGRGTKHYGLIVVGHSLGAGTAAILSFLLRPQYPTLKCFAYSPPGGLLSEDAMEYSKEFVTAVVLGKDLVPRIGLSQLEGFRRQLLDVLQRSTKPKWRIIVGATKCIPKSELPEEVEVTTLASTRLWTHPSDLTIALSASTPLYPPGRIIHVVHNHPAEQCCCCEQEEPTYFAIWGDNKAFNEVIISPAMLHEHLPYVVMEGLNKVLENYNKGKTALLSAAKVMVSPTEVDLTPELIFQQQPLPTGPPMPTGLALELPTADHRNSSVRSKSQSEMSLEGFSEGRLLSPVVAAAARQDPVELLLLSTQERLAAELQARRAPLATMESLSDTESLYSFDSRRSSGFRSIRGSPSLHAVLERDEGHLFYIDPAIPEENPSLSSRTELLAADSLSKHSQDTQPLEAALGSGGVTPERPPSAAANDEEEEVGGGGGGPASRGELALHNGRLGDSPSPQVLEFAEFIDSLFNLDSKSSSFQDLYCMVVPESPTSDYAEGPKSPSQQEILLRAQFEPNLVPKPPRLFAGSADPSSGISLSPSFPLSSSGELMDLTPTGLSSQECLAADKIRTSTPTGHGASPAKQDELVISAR
Method: The biochemical hDAGL-α activity assay is based on the hydrolysis of para-nitrophenylbutyrate (PNP-butyrate) by membrane preparations from HEK293T cells transiently transfected with hDAGL-α. 200 µL reactions were performed in flat bottom Greiner 96-wells plates in a 50 mM pH 7.2 Hepes buffer. Membrane protein fractions from HEK293T cells transiently transfected with hDAGL-α (0.05 µg/µL final concentration) were used as hDAGL-α source. Compounds to be tested were introduced in 5 µL DMSO. The mixtures were incubated for 30 minutes before 5.0 µL 12 mM PNP-butyrate (final concentration 0.3 mM) in DMSO was added (final DMSO concentration 5.0%). Kinetics were followed immediately after addition of PNP-butyrate on a plate reader (TECAN GENios® microplate reader), by measuring the OD420 every 60 seconds, for 20 minutes at 37°C. The slope of the linear region from 5-15 minutes was determined, and all experiments were performed at N = 2, n = 2 for experimental measurements and N = 2, n = 4 for controls.
Data analysis: Z'-factor of each plate was determined for the validation of each experiment, using the following formula Z' = 1-3(σpc + σnc)/(µpc - µnc). The slope from 5-15 minutes of the positive control (pc: hDAGL-α, DMSO), and the negative control (nc: Mock, DMSO) was used. Plates were accepted for further analysis when Z' > 0.6. Kinetic measurements were corrected for the average absorption of the negative control (mock, DMSO). The slope of the linear region from 5-15 minutes was determined. The average, standard deviation (SD) and standard error of mean (SEM) were calculated and normalized to the corrected positive control. Data was exported to Graphpad Prism 5.0 for the calculation of the pIC50 using a nonlinear dose-response analysis.

DAGL-α Activity assay pIC50 (hDAGL-α) | FAAH labeling (FAAH; up to a concentration of 10 µM, n=3) | IC50 (hDAGL-α; read-out: DAGL-α Activity assay pIC50 (converted)) [nM] | SMILES | FAAH ABPP (10 µm) % Eff. (FAAH)
7.43 | – | – | O=C(CCCCCc1ccccc1)c1nc2ncccc2o1 [Compound 1, 1-(Oxazolo[4,5-b]pyridin-2-yl)-6-phenylhexan-1-one, reference compound] | 99%
– | did not block FAAH labeling | 3.02 | Cc1ccc(-c2cnc3nc(C(=O)CCCCCc4ccccc4)oc3c2)cc1 [Compound 25, 1-(6-(p-Tolyl)oxazolo[4,5-b]pyridin-2-yl)-6-phenylhexan-1-one] | N/A (N/A means less than 50% probe displacement at 10 µM inhibitor concentration)
